How the values were obtained:
Format in all cases: cell-based
[1] = biological target: T1, CquiOR1 (CquiOR1•CquiOrco) (Culex quinquefasciatus, UniProt S5RQ84); test: two-electrode voltage clamp, Xenopus oocytes, inward current; details: agonist; co-expressed CquiOrco; -70 mV
T1 sequence (S5RQ84 1-391): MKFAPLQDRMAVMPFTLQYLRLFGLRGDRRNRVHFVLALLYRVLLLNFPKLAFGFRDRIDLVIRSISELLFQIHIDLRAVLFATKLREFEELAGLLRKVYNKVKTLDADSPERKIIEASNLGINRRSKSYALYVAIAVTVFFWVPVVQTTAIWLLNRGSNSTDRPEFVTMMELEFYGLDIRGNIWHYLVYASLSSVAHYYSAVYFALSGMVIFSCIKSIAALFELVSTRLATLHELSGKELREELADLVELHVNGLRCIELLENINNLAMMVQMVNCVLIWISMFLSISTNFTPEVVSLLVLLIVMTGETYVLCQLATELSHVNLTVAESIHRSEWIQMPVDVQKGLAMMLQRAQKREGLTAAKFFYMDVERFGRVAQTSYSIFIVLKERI

[2] = biological target: T1, CquiOR1 (CquiOR1•CquiOrco); test: Xenopus oocyte recording, UM laboratory; details: agonist; co-expressed CquiOrco; positive control
[3] = biological target: T2, CquiOR44 (CquiOR44•CquiOrco) (Culex quinquefasciatus, UniProt S5RSX8); test: two-electrode voltage clamp, Xenopus oocytes, inward current; details: agonist; co-expressed CquiOrco; -70 mV
T2 sequence (S5RSX8 1-423): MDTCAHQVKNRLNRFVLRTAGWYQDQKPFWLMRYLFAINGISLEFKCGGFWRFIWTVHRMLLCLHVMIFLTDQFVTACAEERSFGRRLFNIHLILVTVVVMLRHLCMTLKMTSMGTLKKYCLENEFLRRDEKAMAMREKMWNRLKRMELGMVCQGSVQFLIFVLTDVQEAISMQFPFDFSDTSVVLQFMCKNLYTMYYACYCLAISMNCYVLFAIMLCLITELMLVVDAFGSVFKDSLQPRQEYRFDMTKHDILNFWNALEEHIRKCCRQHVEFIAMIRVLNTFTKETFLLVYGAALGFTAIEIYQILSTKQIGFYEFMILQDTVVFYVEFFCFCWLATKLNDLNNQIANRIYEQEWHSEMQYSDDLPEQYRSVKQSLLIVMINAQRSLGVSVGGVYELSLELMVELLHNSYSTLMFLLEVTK

[4] = biological target: T3, CquiOR73 (CquiOR73•CquiOrco) (Culex quinquefasciatus, UniProt S5R433); test: as above; details: agonist; co-expressed CquiOrco; -70 mV
T3 sequence (S5R433 1-396): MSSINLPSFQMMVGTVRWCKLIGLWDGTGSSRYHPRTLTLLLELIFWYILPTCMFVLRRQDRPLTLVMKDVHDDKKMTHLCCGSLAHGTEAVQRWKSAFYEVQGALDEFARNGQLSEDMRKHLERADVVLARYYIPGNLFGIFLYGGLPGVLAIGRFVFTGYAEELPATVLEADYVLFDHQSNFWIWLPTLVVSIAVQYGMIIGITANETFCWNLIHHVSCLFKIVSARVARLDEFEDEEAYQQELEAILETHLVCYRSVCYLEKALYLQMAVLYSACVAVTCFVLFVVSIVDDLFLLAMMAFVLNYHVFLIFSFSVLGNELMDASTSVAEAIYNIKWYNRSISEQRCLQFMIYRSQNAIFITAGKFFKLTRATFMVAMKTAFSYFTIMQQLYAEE

Structure (SMILES): CCCCCCO [1-hexanol]
- two-electrode voltage clamp, Xenopus oocytes, inward current [1]: when CquiOR1 was challenged with 1-hexanol, 1-octen-3-ol, 2-phenoxyethanol, or benzaldehyde

Structure (SMILES): C=CC(O)CCCCC (stereo not drawn) [1-octen-3-ol]
- two-electrode voltage clamp, Xenopus oocytes, inward current [1]: when CquiOR1 was challenged with 1-hexanol, 1-octen-3-ol, 2-phenoxyethanol, or benzaldehyde

Structure (SMILES): CCc1ccc(O)cc1 [4-ethylphenol]
- Xenopus oocyte recording, UM laboratory [2]: medium to large responses when challenged with indole, 4-ethylphenol, 4-methylphenol, phenol

Structure (SMILES): CC1(C)C(=O)[C@@]2(C)CC[C@@H]1C2 [(+)-fenchone]
- two-electrode voltage clamp, Xenopus oocytes, inward current [3]: no chiral discrimination as responses to (+)- and (−)-fenchone did not differ

Structure (SMILES): CC1(C)C(=O)[C@]2(C)CC[C@H]1C2 [(−)-fenchone]
- two-electrode voltage clamp, Xenopus oocytes, inward current [3]: no chiral discrimination as responses to (+)- and (−)-fenchone did not differ

Structure (SMILES): CC(=O)c1ccccc1 [acetophenone]
- Xenopus oocyte recording, UM laboratory [2]: phenol, acetophenone, benzaldehyde, and 6-methyl-5-hepten-2-one

Structure (SMILES): C=CCc1ccc(O)c(OC)c1 [eugenol]
- two-electrode voltage clamp, Xenopus oocytes, inward current [4]: eugenol was the best ligand identified for this OR

Structure (SMILES): CCCCCCCCOC(C)=O [octyl acetate]
- two-electrode voltage clamp, Xenopus oocytes, inward current [4]: no significant response to the majority of compounds in the panel, except for octyl acetate

Structure (SMILES): CC1CCC(C(C)(C)O)C(O)C1 (stereo not drawn) [p-menthane-3,8-diol]
- two-electrode voltage clamp, Xenopus oocytes, inward current [3]: including known natural repellents like p-menthane-3,8-diol
